T1: DmUCP4A (Drosophila melanogaster, UniProt Q9VX14)
T1 construct: gene Ucp4A
T1 sequence (Q9VX14 1-340): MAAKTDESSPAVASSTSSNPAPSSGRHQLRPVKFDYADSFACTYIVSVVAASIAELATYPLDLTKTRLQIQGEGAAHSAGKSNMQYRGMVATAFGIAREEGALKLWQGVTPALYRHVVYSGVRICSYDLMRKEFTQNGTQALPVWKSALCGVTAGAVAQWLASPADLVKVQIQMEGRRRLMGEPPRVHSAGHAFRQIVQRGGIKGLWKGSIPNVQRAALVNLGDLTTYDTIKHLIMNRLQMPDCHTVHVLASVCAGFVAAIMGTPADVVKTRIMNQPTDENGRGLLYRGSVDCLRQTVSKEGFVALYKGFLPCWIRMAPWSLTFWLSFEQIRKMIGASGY


Substrate: N[C@@H](CC(=O)O)C(=O)O
Assay: purified protein
Conditions: aspartate/aspartate exchange, 10 mM internal aspartate, pH 6.5, 25 °C, labelled compound

Row | Molecule | Km
1 | DmUCP4A (Drosophila melanogaster) (protein) MAAKTDESSPAVASSTSSNPAPSSGRHQLRPVKFDYADSFACTYIVSVVAASIAELATYPLDLTKTRLQIQGEGAAHSAGKSNMQYRGMVATAFGIAREEGALKLWQGVTPALYRHVVYSGVRICSYDLMRKEFTQNGTQALPVWKSALCGVTAGAVAQWLASPADLVKVQIQMEGRRRLMGEPPRVHSAGHAFRQIVQRGGIKGLWKGSIPNVQRAALVNLGDLTTYDTIKHLIMNRLQMPDCHTVHVLASVCAGFVAAIMGTPADVVKTRIMNQPTDENGRGLLYRGSVDCLRQTVSKEGFVALYKGFLPCWIRMAPWSLTFWLSFEQIRKMIGASGY | 229.2 ± 12.64 µM

Molecular target: T1, DmUCP4A
Assay: inhibition of […]aspartate/aspartate exchange in proteoliposomes
Type: biochemical
Conditions: 0.3 mM external [14C]aspartate, 10 mM internal aspartate, pH 6.5, 25 °C, 1 min

Row | Molecule | % inhibition at 10 mM
2 | O=C(O)CCC(=O)C(=O)O [2-oxoglutarate] | to a much lower extent by oxalate, maleate, 2-oxoglutarate, and cysteine sulfinate
3 | c1ccc(-c2ccnc3c2ccc2c(-c4ccccc4)ccnc23)cc1 [bathophenanthroline] | The activity of DmUCP4A was strongly inhibited by BAT, PLP, and tannic acid
4 | CCCCC(C(=O)O)C(=O)O [butylmalonate] | butylmalonate, and phenylsuccinate
5 | N[C@@H](CS(=O)O)C(=O)O [cysteine sulfinate] | to a much lower extent by oxalate, maleate, 2-oxoglutarate, and cysteine sulfinate
6 | O=C(O)/C=C\C(=O)O [maleate] | to a much lower extent by oxalate, maleate, 2-oxoglutarate, and cysteine sulfinate
7 | O=C(O)CC(C(=O)O)c1ccccc1 (stereo not drawn) [phenylsuccinate] | butylmalonate, and phenylsuccinate
8 | Cc1ncc(COP(=O)(O)O)c(C=O)c1O [pyridoxal-5′-phosphate] | The activity of DmUCP4A was strongly inhibited by BAT, PLP, and tannic acid

Same assay, conditions: 0.3 mM external [14C]aspartate, 10 mM internal aspartate, pH 6.5, 25 °C, 1 min; added externally with labelled aspartate as potential competitor

Row | Molecule | % inhibition at 10 mM
9 | O=C(O)C(=O)O [oxalate] | to a much lower extent by oxalate, maleate, 2-oxoglutarate, and cysteine sulfinate

From article PMC8834685 (International Journal of Molecular Sciences, 2022)
